Results as given in PMC8187357 (Communications Biology, 2021).
Where “and” joins values, the source holds several entries; their conditions need not be identical. Equal entries are not always repeated.

Experiments:
[1] = test system: MC38 colon carcinoma; assay: Antitumor efficacy in MC38 syngeneic model (C57B6); format: in vivo, mouse; conditions: MC38 in C57B6 mice, day 14 of dosing
Experimental: For MC38 syngeneic colon carcinoma subcutaneous model, 0.5 × 10^6 MC38 cells (Source: NCI/NIH, kind gift from Dr. Michael Pollack) were injected subcutaneously to the left flank of the C57B6 mouse (In-house) or SCID Beige mice (Source: Harlan, France) on day 1 and dosing was initiated when average tumor volume reached ~100 mm^3. Animals were randomized based on tumor volumes and treated with either a vehicle control or CA-170 at indicated doses for 14 days. Anti-PD1 antibody (Clone J43 from BioXcel) was dosed intraperitoneally at 100 µg/animal once every week. Treatment efficacy was assessed in terms of the effects of the test substances on the tumor volumes of treated mice relative to vehicle-treated mice. Tumor growth curves of test and control groups using the mean tumor volumes were drawn, percent tumor growth inhibition (%TGI) […].

[2] = test system: advanced (stage 4) non-squamous NSCLC; parameters: method as in doi:10.1093/annonc/mdz253.035; conditions: Phase 2, cited from earlier work
[3] = target: T1, PD-L2 (Homo sapiens, UniProt Q9BQ51); assay: Rescue of IFN-γ release inhibited by PD-L2, human PBMC; format: cell-based; conditions: for IFNγ Rescue (%): inhibited by PD-L2; for IFNγ Rescue (%) / IFN-γ: replicates; for IFN-γ: human PBMCs + anti-CD3/anti-CD28 + PD-L2 10 nM
T1 construct: purchased R&D systems 1224-PL-100
T1 sequence (Q9BQ51 with tags, fused parts or gaps limits assumed): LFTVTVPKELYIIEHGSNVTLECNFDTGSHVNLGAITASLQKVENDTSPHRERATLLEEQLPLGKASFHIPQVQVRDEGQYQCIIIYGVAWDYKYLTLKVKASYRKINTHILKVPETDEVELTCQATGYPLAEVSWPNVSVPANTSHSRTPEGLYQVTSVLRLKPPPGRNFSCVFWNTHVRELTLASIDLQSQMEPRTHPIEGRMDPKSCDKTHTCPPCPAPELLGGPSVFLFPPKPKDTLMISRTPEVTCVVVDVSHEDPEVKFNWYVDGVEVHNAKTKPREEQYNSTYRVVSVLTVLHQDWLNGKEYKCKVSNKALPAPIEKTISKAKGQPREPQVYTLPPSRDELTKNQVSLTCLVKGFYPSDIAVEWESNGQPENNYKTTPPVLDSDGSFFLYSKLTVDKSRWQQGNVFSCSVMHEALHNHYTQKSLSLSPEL
Experimental: (§1) The ability of peptides, peptidomimetics, and small molecules were analyzed for their ability to rescue T-cell proliferation or IFN-γ release from the inhibitory activity of PD-L1 or PD-L2 in a splenocyte/PBMC-based functional assay as per the protocols reported in publication. […] For all in vitro assays, test agent stock was prepared in water and diluted further in the assay media to achieve test concentrations. Each experimental condition was carried out in triplicates. Percent rescue for a given test compound concentration was calculated by normalizing individual percent test agent proliferation or IFN-γ release values to percent anti-CD3 and anti-CD28 antibodies stimulated proliferation or IFN-γ release. EC50 values were derived by plotting transformed data into non-linear fit in sigmoidal dose–response curve using GraphPad Prism software (Version 7).

[4] = target: PD-L1 (Macaca fascicularis, UniProt G7PSE7); assay: Rescue of proliferation inhibited by PD-L1, monkey PBMC; format: cell-based; conditions: n=1
PD-L1, sequence (G7PSE7 19-239): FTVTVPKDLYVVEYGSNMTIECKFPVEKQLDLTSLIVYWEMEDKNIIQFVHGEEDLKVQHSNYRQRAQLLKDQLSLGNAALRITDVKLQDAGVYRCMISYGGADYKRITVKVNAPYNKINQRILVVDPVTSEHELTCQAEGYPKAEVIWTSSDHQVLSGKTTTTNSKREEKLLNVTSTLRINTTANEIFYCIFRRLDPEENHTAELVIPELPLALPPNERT
Experimental: as §1

[5] = target: T2, Melanocortin MC4 (Homo sapiens, UniProt P32245); assay: CEREP 80 panel binding: Melanocortin; conditions: read-out: % Inhibition of Control Specific Binding
T2 construct: Eurofins Cerep Panlabs (contract assay)
T2 sequence (P32245 whole entry): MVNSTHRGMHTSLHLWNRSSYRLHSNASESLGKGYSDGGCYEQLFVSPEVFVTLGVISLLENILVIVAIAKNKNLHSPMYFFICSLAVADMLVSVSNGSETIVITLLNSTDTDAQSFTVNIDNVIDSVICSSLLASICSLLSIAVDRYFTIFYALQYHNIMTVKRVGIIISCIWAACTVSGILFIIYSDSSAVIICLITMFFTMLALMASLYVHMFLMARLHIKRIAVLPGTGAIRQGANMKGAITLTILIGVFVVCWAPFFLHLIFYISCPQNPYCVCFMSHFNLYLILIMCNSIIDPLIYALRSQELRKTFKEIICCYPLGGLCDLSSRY
Experimental: (§2) CEREP 80 panel assay was carried out by Eurofins Cerep Panlabs facility at France. A series of binding assays was carried out to understand the off-target toxicity of CA-170. CA-170 was tested at 10 μM test concentration in duplicates. Compound binding was calculated as a % inhibition of the binding of a radioactively labeled ligand specific for each target. In each experiment the respective reference compound was tested concurrently with CA-170, and the data were compared with historical values determined at Eurofins. The experiment was accepted in accordance with Eurofins validation standard operating procedure. The results are expressed as a percent of control specific binding; (measured specific binding / control specific binding) × 100 and as a percent inhibition of control specific binding; 100−(measured specific binding / control specific binding) × 100 obtained in the presence of CA-170. The IC50 values (concentration causing a half-maximal inhibition of control specific binding) and Hill coefficients (nH) were determined by non-linear regression analysis of the competition curves generated with mean replicate values using Hill equation curve fitting.

[6] = test system: Adrenergic α1, α2, β1, β2; assay: CEREP 80 panel binding: Adrenergic; conditions: 10 µM
Experimental: as §2

[7] = test system: Histamine H1,H2; assay: CEREP 80 panel binding: Histamine; conditions: 10 µM
Experimental: as §2

[8] = target: T3, PD-1:PD-L1 complex (Homo sapiens, UniProt Q9NZQ7); assay: TR-FRET PD-1:PD-L1 complex formation assay; format: binding; conditions: for Percent inhibition: duplicates
T3 construct: purchased Sino Biologicals (PD-L1); R&D system (PD-1 Fc) 10084-H08H; 1086-PD; host or cells: mammalian cells
T3 sequence (Q9NZQ7 19-239 limits assumed, one chain of several): as the sequence (G7PSE7 19-239) above, with T33A, S34A, N62S, Q68R, R82Q, L173F, A185T, I192T, L215H counted along it
Experimental: The assay was performed using LANCE Ultra TR-FRET binding assay. To determine the half maximal inhibitory concentration (IC50) of tested compounds, they were solubilized in water and measurements were performed on individual dilution series. His-tagged human recombinant PD-L1 protein (Sino Biologicals, Cat#10084-H08H) at 20 nM final concentration was incubated at 25 °C temperature with indicated concentration of test compound for 15 min in a white Lumitec high-binding, 384-well plate (Grenier, Cat #781074). […] LANCE Eu-anti-human IgG from Perkin Elmer, (Cat# AD0212) at 0.5 nM final concentration and Surelight Allophycocyanin-6-His from Perkin Elmer (Cat# AD0059H) at 20 nM final concentration was added to the wells. […] Collected data was background subtracted on the negative control, normalized, and analyzed using non-linear regression analysis to determine the IC50 value by GraphPad Prism Version 8.

[9] = test system: CT26 colon carcinoma model; assay: Immune pharmacodynamics in CT26 colon carcinoma model; format: in vivo, mouse; conditions: CT26 tumor infiltrating lymphocytes, CA-170 10 mg/kg daily, PD-1 antibody J43 100 µg/animal, 5 days, individual animals
Source text: For the measurement of immune pharmacodynamics, CT26 cells were subcutaneously implanted into 5 to 7 weeks old male Balb/c mice by injecting 1 million CT26 tumor cells/ animal. When tumor volume reached ~200mm^3, animals were randomized and allocated to three treatment groups (n = 5). Similarly, for the measurement of immune pharmacodynamics in MC38 model, MC38 cell lines were subcutaneously implanted into 5 to 7 weeks old male C57B6 mice by injecting 0.5 million cells/animal. Dosing was initiated when tumor volume reached ~100 mm^3. In both tumor models, mice were orally treated daily with vehicle and CA-170 (10 mg/kg) for 5 days. As an additional control, anti-PD1 antibody (100 μg/animal, clone J43) was dosed intraperitoneally on day 1. After 24 h of last dosing, animals were sacrificed, and blood samples and tumor tissues were collected from each animal and processed for PD evaluation using antibodies shown in Supplementary Table 1 and specific methods reported in publication[51] and analyzed by FACS. The gating strategy is detailed in Supplementary Fig. 3.

C[C@@H](O)[C@H](NC(=O)N[C@@H](CC(N)=O)c1nc([C@@H](N)CO)no1)C(=O)O [CA-170]
Individual tumor volumes ([1]; CA-170 10 mg/kg PO daily, J43 100 µg/animal/week, 10 mg/kg): 391.77 mm3 and 388.53 mm3 and 554.94 mm3 and 536.22 mm3 and 252.8 mm3 and 593.87 mm3 and 294.73 mm3 and 377.95 mm3 and 460.46 mm3 and 205.38 mm3
tumor growth inhibition ([1]; CA-170 10 mg/kg/day orally, PD-1 antibody 100 µg/animal/week): 43%
PFS ([2]; advanced (stage 4) non-squamous NSCLC): 19.6 weeks
CBR ([2]; daily dose of 400 mg, advanced non-squamous NSCLC): > 85%
IFNγ Rescue (%) ([3]; 1.95 nM): -64.52% and -5.10% and -5.67%
IFNγ Rescue (%) ([3]; 3.91 nM): -3.89% and -4.90% and -5.25%
IFNγ Rescue (%) ([3]; 7.81 nM): -1.08% and -2.04% and -2.73%
IFNγ Rescue (%) ([3]; 15.63 nM): 4.10% and 2.24% and 2.52%
IFN-γ ([3]; 31.25 nM): 66.5 pg/mL and 74 pg/mL and 64 pg/mL
IFNγ Rescue (%) ([3]; 31.25 nM): 4.10% and 2.86% and 1.89%
IFNγ Rescue (%) ([3]; 62.50 nM): 39.96% and 36.33% and 35.71%
IFNγ Rescue (%) ([3]; 250.00 nM): 74.73% and 74.90% and 79.20%
IFN-γ ([3]; 500 nM): 869 pg/mL and 984 pg/mL and 1059 pg/mL
IFNγ Rescue (%) ([3]; 500.00 nM): 73.43% and 77.14% and 85.50%
rescue of IFNγ release inhibited by recombinant PD-L2 (in words) ([3]; human PBMCs stimulated with anti-CD3 and anti-CD28): rescued IFNγ release
EC50 ([3]; mean ± S.D., n=3): 80.9 nM
EC50 [4]: 34 nM
inhibition at 10 µM [5]: 0%
% Inhibition of Control Specific Binding [6]: ≤ 6%
% Inhibition of Control Specific Binding [7]: < 0%
Percent inhibition ([8]; 1e-7 M): 6.182% and -0.9776%
Percent inhibition ([8]; 1e-6 M): -12.4686% and -2.961%
Percent inhibition ([8]; 1e-5 M): -7.3407% and -7.039%
Percent inhibition ([8]; 0.0001 M): -7.475% and -8.751%
prevention of PD-1:PD-L1 complex formation (in words) ([8]; tested up to 100 μM): did not lead to prevention of complex formation
Ki-67+ cells % Live, CD45+, CD3+, CD4+ T cells [9]: 57.1% and 63.22% and 64.66% and 82.55% and 45.02%
Ki-67+ cells % Live, CD45+, CD3+, CD8+ T cells [9]: 71.24% and 82.88% and 69.7% and 88.94% and 68.84%
OX-40+ cells % Live, CD45+, CD3+, CD4+ T cells [9]: 56.66% and 56.78% and 46.34% and 42.73% and 29.6%
OX-40+ cells % Live, CD45+, CD3+, CD8+ T cells [9]: 87.3% and 96.29% and 95.65% and 95.1% and 35.3%
